From patent publication US10131652B2, “Pyrimidinyloxy benzene derivatives as herbicides” (E. I. DU PONT DE NEMOURS AND COMPANY, priority 2014, dated 2018)
Where two headings read alike, the source gives them in different places.

Key:
Test in all cases: Test E pre-/postemergence plant response
Type in all cases: in vivo
[1] = test system: downy bromegrass (Bromus tectorum); conditions: scale 0 to 100, read-out: Plant response rating, Bromegrass, Downy; for pest or weed control at 16 g/ha: 16 g ai/ha; for pest or weed control at 31 g/ha: 31 g ai/ha; for pest or weed control at 62 g/ha: 62 g ai/ha; for pest or weed control at 125 g/ha: 125 g ai/ha
How it was run: (§1)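 Visual scores on a 0–100 scale (100 = complete control) were assigned against untreated controls 7–21 days after treatment in a controlled environment. Compounds, formulated with solvent plus surfactant, were applied to pre-emergence silt-loam sowings or to 1- to 4-leaf plants (2–18 cm) in potting medium.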

[2] = test system: spring wheat (Triticum aestivum); conditions: post-emergence, Postemergence, scale 0 to 100, read-out: Plant response rating, Wheat, Spring
How it was run: as §1

[3] = test system: bluegrass (annual bluegrass, Poa annua); conditions: scale 0 to 100, read-out: Plant response rating, Bluegrass; for pest or weed control at 16 g/ha: 16 g ai/ha; for pest or weed control at 31 g/ha: 31 g ai/ha; for pest or weed control at 62 g/ha: 62 g ai/ha; for pest or weed control at 125 g/ha: 125 g ai/ha
How it was run: as §1

[4] = test system: chamomile (scentless chamomile, Matricaria inodora); conditions: Tripleurospermum inodorum, scale 0 to 100, read-out: Plant response rating, Chamomile; for pest or weed control at 16 g/ha: 16 g ai/ha; for pest or weed control at 31 g/ha: 31 g ai/ha; for pest or weed control at 62 g/ha: 62 g ai/ha; for pest or weed control at 125 g/ha: 125 g ai/ha
How it was run: as §1

[5] = test system: oilseed rape (Brassica napus); conditions: scale 0 to 100, read-out: Plant response rating, Oilseed Rape; for plant injury at 16 g/ha: 16 g ai/ha; for plant injury at 31 g/ha: 31 g ai/ha; for plant injury at 62 g/ha: 62 g ai/ha; for plant injury at 125 g/ha: 125 g ai/ha
How it was run: as §1

[6] = test system: winter wheat (Triticum aestivum); conditions: post-emergence, Postemergence, scale 0 to 100, read-out: Plant response rating, Wheat, Winter
How it was run: as §1

[7] = test system: field poppy (Papaver rhoeas); conditions: scale 0 to 100, read-out: Plant response rating, Field Poppy; for pest or weed control at 16 g/ha: 16 g ai/ha; for pest or weed control at 31 g/ha: 31 g ai/ha; for pest or weed control at 62 g/ha: 62 g ai/ha; for pest or weed control at 125 g/ha: 125 g ai/ha
How it was run: as §1

[8] = test system: kochia (Kochia scoparia); conditions: Bassia scoparia, scale 0 to 100, read-out: Plant response rating, Kochia; for pest or weed control at 16 g/ha: 16 g ai/ha; for pest or weed control at 31 g/ha: 31 g ai/ha; for pest or weed control at 62 g/ha: 62 g ai/ha; for pest or weed control at 125 g/ha: 125 g ai/ha
How it was run: as §1

[9] = test system: wild mustard (Sinapis arvensis); conditions: Brassica, scale 0 to 100, read-out: Plant response rating, Mustard, Wild; for pest or weed control at 16 g/ha: 16 g ai/ha; for pest or weed control at 31 g/ha: 31 g ai/ha; for pest or weed control at 62 g/ha: 62 g ai/ha; for pest or weed control at 125 g/ha: 125 g ai/ha
How it was run: as §1

[10] = test system: speedwell (bird's-eye speedwell, Veronica persica); conditions: scale 0 to 100, read-out: Plant response rating, Speedwell; for pest or weed control at 16 g/ha: 16 g ai/ha; for pest or weed control at 62 g/ha: 62 g ai/ha; for pest or weed control at 125 g/ha: 125 g ai/ha
How it was run: as §1

[11] = test system: green foxtail (Setaria viridis); conditions: scale 0 to 100, read-out: Plant response rating, Foxtail, Green; for pest or weed control at 31 g/ha: 31 g ai/ha; for pest or weed control at 62 g/ha: 62 g ai/ha; for pest or weed control at 125 g/ha: 125 g ai/ha
How it was run: as §1

FC(F)(F)c1cc(-c2ccccc2Oc2ncc(Cl)cn2)no1 [Compound 200, 5-chloro-2-[2-[5-(trifluoromethyl)-3-isoxazolyl]phenoxy]pyrimidine]
10%: pest or weed control at 31 g/ha ([1]; post-emergence, Postemergence) | pest or weed control at 16 g/ha ([1]; pre-emergence, Preemergence) | plant injury at 31 g/ha ([2]; 31 g ai/ha) | pest or weed control at 31 g/ha ([4]; post-emergence, Postemergence) | pest or weed control at 62 g/ha ([4]; post-emergence, Postemergence)
85%: plant injury at 31 g/ha ([5]; post-emergence, Postemergence) | pest or weed control at 31 g/ha ([8]; post-emergence, Postemergence) | pest or weed control at 62 g/ha ([8]; post-emergence, Postemergence) | pest or weed control at 16 g/ha ([9]; pre-emergence, Preemergence) | pest or weed control at 62 g/ha ([9]; pre-emergence, Preemergence)
90%: pest or weed control at 31 g/ha ([7]; pre-emergence, Preemergence) | pest or weed control at 125 g/ha ([8]; post-emergence, Postemergence)
0%: plant injury at 16 g/ha ([6]; 16 g ai/ha)
70%: pest or weed control at 125 g/ha ([3]; post-emergence, Postemergence) | pest or weed control at 31 g/ha ([3]; pre-emergence, Preemergence) | pest or weed control at 16 g/ha ([8]; post-emergence, Postemergence) | pest or weed control at 16 g/ha ([8]; pre-emergence, Preemergence) | pest or weed control at 16 g/ha ([10]; post-emergence, Postemergence)
60%: pest or weed control at 62 g/ha ([4]; pre-emergence, Preemergence) | plant injury at 16 g/ha ([5]; pre-emergence, Preemergence)
75%: pest or weed control at 125 g/ha ([4]; pre-emergence, Preemergence) | plant injury at 16 g/ha ([5]; post-emergence, Postemergence) | pest or weed control at 16 g/ha ([7]; post-emergence, Postemergence) | pest or weed control at 16 g/ha ([9]; post-emergence, Postemergence)
35%: pest or weed control at 125 g/ha ([1]; post-emergence, Postemergence) | pest or weed control at 31 g/ha ([1]; pre-emergence, Preemergence) | plant injury at 125 g/ha ([2]; 125 g ai/ha) | pest or weed control at 31 g/ha ([3]; post-emergence, Postemergence) | pest or weed control at 31 g/ha ([11]; post-emergence, Postemergence)
45%: pest or weed control at 62 g/ha ([1]; pre-emergence, Preemergence) | pest or weed control at 62 g/ha ([11]; post-emergence, Postemergence)
100%: pest or weed control at 125 g/ha ([3]; pre-emergence, Preemergence) | plant injury at 62 g/ha ([5]; post-emergence, Postemergence) | plant injury at 125 g/ha ([5]; post-emergence, Postemergence) | plant injury at 31 g/ha ([5]; pre-emergence, Preemergence) | plant injury at 62 g/ha ([5]; pre-emergence, Preemergence) | plant injury at 125 g/ha ([5]; pre-emergence, Preemergence) | pest or weed control at 62 g/ha ([7]; post-emergence, Postemergence) | pest or weed control at 125 g/ha ([7]; post-emergence, Postemergence) | pest or weed control at 31 g/ha ([8]; pre-emergence, Preemergence) | pest or weed control at 62 g/ha ([8]; pre-emergence, Preemergence) | pest or weed control at 125 g/ha ([8]; pre-emergence, Preemergence) | pest or weed control at 62 g/ha ([9]; post-emergence, Postemergence) | pest or weed control at 125 g/ha ([9]; post-emergence, Postemergence) | pest or weed control at 125 g/ha ([9]; pre-emergence, Preemergence) | pest or weed control at 31 g/ha ([10]; post-emergence, 31 g ai/ha, Postemergence) | pest or weed control at 62 g/ha ([10]; post-emergence, Postemergence) | pest or weed control at 125 g/ha ([10]; post-emergence, Postemergence) | pest or weed control at 16 g/ha ([10]; pre-emergence, Preemergence) | pest or weed control at 62 g/ha ([10]; pre-emergence, Preemergence) | pest or weed control at 125 g/ha ([10]; pre-emergence, Preemergence) | pest or weed control at 62 g/ha ([11]; pre-emergence, Preemergence) | pest or weed control at 125 g/ha ([11]; pre-emergence, Preemergence)
20%: plant injury at 62 g/ha ([2]; 62 g ai/ha) | pest or weed control at 16 g/ha ([3]; post-emergence, Postemergence) | pest or weed control at 16 g/ha ([3]; pre-emergence, Preemergence)
80%: pest or weed control at 125 g/ha ([1]; pre-emergence, Preemergence) | pest or weed control at 31 g/ha ([7]; post-emergence, Postemergence) | pest or weed control at 16 g/ha ([7]; pre-emergence, Preemergence)
95%: pest or weed control at 62 g/ha ([3]; pre-emergence, Preemergence) | pest or weed control at 62 g/ha ([7]; pre-emergence, Preemergence) | pest or weed control at 125 g/ha ([7]; pre-emergence, Preemergence) | pest or weed control at 31 g/ha ([9]; post-emergence, Postemergence) | pest or weed control at 31 g/ha ([9]; pre-emergence, Preemergence)
55%: pest or weed control at 62 g/ha ([3]; post-emergence, Postemergence) | pest or weed control at 125 g/ha ([11]; post-emergence, Postemergence)
25%: pest or weed control at 62 g/ha ([1]; post-emergence, Postemergence) | pest or weed control at 16 g/ha ([4]; pre-emergence, Preemergence) | pest or weed control at 31 g/ha ([4]; pre-emergence, Preemergence) | plant injury at 125 g/ha ([6]; 125 g ai/ha) | pest or weed control at 16 g/ha ([11]; post-emergence, 16 g ai/ha, Postemergence) | pest or weed control at 31 g/ha ([11]; pre-emergence, Preemergence)
15%: pest or weed control at 125 g/ha ([4]; post-emergence, Postemergence) | plant injury at 62 g/ha ([6]; 62 g ai/ha)
5%: pest or weed control at 16 g/ha ([1]; post-emergence, Postemergence) | plant injury at 16 g/ha ([2]; 16 g ai/ha) | pest or weed control at 16 g/ha ([4]; post-emergence, Postemergence) | plant injury at 31 g/ha ([6]; 31 g ai/ha)
